In general, solubility refers to the dissolved amount per volume that the medium holds. The term EC50 denotes the concentration needed to bring the measured effect to its halfway point.

We go through 14 compounds from patent US7799792B2, “Metabotropic glutamate receptor oxadiazole ligands and their use as potentiators 841” (AstraZeneca AB, priority 2007, dated 2010).

Molecules are shown by their SMILES. Converted amounts (≈) assume the structure as drawn.

The nature of series [1]: Aqueous solubility in pH 7.4 phosphate buffer. The class given is physicochemical. The settings on record: thermodynamic from solid, equilibration 24 h at 25° C., read-out: Aq. solubility. As to the method:
Solubility was determined in pH 7.4 phosphate buffer after equilibration for 24 h at 25° C. and HPLC-UV and LC-MSMS were used for quantitation.

For the next series, the target named is T1, human mGluR2 receptor (Homo sapiens, UniProt Q14416).
T1 construct: expressed in transfected cells; host or cells: CHO cells, stably transfected; membranes
Put plainly: [35S]-GTPγS binding assay of mGluR2 receptor activation (allosteric activator activity). It is filed as biochemical. The note with it: membranes from CHO cells stably expressing human mGluR2; 1 μM glutamate; read-out: GTPgS EC50. Here is the method:
A [^35S]-GTPγS binding assay was used to functionally assay mGluR2 receptor activation. The allosteric activator activity of compounds at the human mGluR2 receptor were measured using a [^35S]-GTPγS binding assay with membranes prepared from CHO cells which stably express the human mGluR2. The assay is based upon the principle that agonists bind to G-protein coupled receptors to stimulate GDP-GTP exchange at the G-protein. Since [^35S]-GTPγS is a non-hydrolyzable GTP analog, it can be used to provide an index of GDP-GTP exchange and, thus, receptor activation. The GTPγS binding assay therefore provides a quantitative measure of receptor activation.
Membranes were prepared from CHO cells stably transfected with human mGluR2. Membranes (30 μg protein) were incubated with test compound (3 nM to 300 μM) for 15 minutes at room temperature prior to the addition of 1 μM glutamate, and incubated for 30 min at 30° C. in 500 μl assay buffer (20 mM HEPES, 100 mM NaCl, 10 mM MgCl2), containing 30 μM GDP and 0.1 nM [^35S]-GTPγS (1250 Ci/mmol). Reactions were carried out in triplicate in 2 ml polypropylene 96-well plates. Reactions were terminated by vacuum filtration using a Packard 96-well harvester and Unifilter-96, GF/B filter microplates. The filter plates were washed 4×1.5 ml with ice-cold wash buffer (10 mM sodium phosphate buffer, pH 7.4). The filter plates were dried and 35 μl of scintillation fluid (Microscint 20) was added to each well. The amount of radioactivity bound was determined by counting plates on the Packard TopCount. Data was analyzed using GraphPad Prism, and EC50 and Emax values (relative to the maximum glutamate effect) were calculated using non-linear regression.
A general note: GTPγS is a poorly hydrolysed GTP analogue; its binding reports G protein activation.

T1 sequence (Q14416 19-872): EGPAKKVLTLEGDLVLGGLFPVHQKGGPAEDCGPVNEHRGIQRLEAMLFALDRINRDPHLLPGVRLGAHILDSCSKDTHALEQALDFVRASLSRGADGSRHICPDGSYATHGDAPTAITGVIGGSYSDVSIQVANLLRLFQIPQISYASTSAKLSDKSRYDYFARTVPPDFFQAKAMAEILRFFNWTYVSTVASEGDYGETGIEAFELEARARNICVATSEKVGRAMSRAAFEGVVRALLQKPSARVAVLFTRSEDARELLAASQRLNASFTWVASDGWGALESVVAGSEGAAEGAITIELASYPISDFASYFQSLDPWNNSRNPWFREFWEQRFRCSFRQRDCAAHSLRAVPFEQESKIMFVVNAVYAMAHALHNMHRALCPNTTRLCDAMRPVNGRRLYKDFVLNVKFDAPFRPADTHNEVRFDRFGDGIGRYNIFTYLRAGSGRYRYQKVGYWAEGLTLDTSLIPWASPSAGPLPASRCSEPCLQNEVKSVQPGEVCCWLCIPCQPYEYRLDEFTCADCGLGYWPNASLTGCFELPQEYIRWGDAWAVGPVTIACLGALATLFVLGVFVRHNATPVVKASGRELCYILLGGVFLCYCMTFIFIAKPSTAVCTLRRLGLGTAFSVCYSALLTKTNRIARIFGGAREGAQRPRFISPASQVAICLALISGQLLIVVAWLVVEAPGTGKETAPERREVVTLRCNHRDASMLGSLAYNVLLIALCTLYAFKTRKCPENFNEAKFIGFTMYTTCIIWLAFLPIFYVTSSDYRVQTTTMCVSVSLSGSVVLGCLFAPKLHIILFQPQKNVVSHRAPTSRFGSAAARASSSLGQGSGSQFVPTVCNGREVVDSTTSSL

As to `Cc1cc(-c2noc(CN3CCNCC3)n2)cc2c1C(=O)N([C@@H](C)c1ccc(Cl)cc1)C2` [Example 6, 2-[(S)-1-(4-Chloro-phenyl)-ethyl]-7-methyl-5-(5-piperazin-1-ylmethyl-[1,2,4]oxadiazol-3-yl)-2,3-dihydro-isoindol-1-one], the solubility at 24 h in series [1] came to 96 µM (≈ 43.4 µg/mL). The EC50 on human mGluR2 receptor stood at 47.8 nM.

As for `Cc1cc(-c2noc(CN3C[C@@H]4C[C@H]3CN4)n2)cc2c1C(=O)N([C@@H](C)c1ccc(Cl)cc1)C2` [Example 7, 2-[(S)-1-(4-Chloro-phenyl)-ethyl]-5-{5-[(1S,4S)-1-(2,5-diaza-bicyclo[2.2.1]hept-2-yl)methyl]-[1,2,4]oxadiazol-3-yl}-7-methyl-2,3-dihydro-isoindol-1-one], the solubility at 24 h in series [1] is 158 µM (≈ 73.3 µg/mL). Further, the concentration giving a half-maximal response (EC50) on human mGluR2 receptor turned out to be 352 nM.

On to `Cc1cc(-c2noc(CN3CCNCC3)n2)cc2c1C(=O)N(Cc1ccc(Cl)cc1)C2` [Example 4, 2-(4-chlorobenzyl)-7-methyl-5-(5-piperazin-1-ylmethyl-[1,2,4]oxadiazol-3-yl)-2,3-dihydroisoindol-1-one], for which the solubility at 24 h in series [1] is 166 µM (≈ 72.7 µg/mL). The EC50 on human mGluR2 receptor came out at 317 nM.

On to `O=C1c2c(Cl)cc(-c3noc(CN4CCNCC4)n3)cc2CN1Cc1ccc(Cl)cc1` [Example 2, 7-chloro-2-(4-chlorobenzyl)-5-(5-piperazin-1-ylmethyl-[1,2,4]oxadiazol-3-yl)-2,3-dihydroisoindol-1-one], for which the solubility at 24 h in series [1] was 176 µM (≈ 80.7 µg/mL). The EC50 at human mGluR2 receptor is 431 nM.

Regarding `Cc1cc(-c2noc(CN3CCNC[C@@H]3C)n2)cc2c1C(=O)N(Cc1ccc(Cl)cc1)C2` [Example 9, 2-(4-chloro-benzyl)-7-methyl-5-[5-(2-methyl-piperazin-1-ylmethyl)-[1,2,4]oxadiazol-3-yl]-2,3-dihydroisoindol-1-one], the solubility at 24 h in series [1] came out at 158 µM (≈ 71.4 µg/mL). Further, the EC50 on human mGluR2 receptor was determined as 323 nM.

For `O=C1c2c(Cl)cc(-c3noc(CN4CCNCC4)n3)cc2CN1Cc1ccc(OC(F)(F)F)cc1` [Example 1, 7-Chloro-5-(5-piperazin-1-ylmethyl-[1,2,4]oxadiazol-3-yl)-2-(4-trifluoromethoxybenzyl)-2,3-dihydroisoindol-1-one], in series [1], the solubility at 24 h came out at 139 µM (≈ 70.6 µg/mL). Also, the EC50 at human mGluR2 receptor was determined as 226 nM.

Take `Cc1cc(-c2noc(C(C)N3CCNCC3)n2)cc2c1C(=O)N(Cc1ccc(Cl)cc1)C2` (stereo not shown) [Example 13, 2-(4-Chloro-benzyl)-7-methyl-5-[5-(1-piperazin-1-yl-ethyl)-[1,2,4]oxadiazol-3-yl]-2,3-dihydro-isoindol-1-one]: the solubility at 24 h in series [1] came out at 240 µM (≈ 108 µg/mL). For the same compound, at human mGluR2 receptor, the EC50 was 283 nM.

With `Cc1cc(-c2noc(CN3CCNC[C@H]3C)n2)cc2c1C(=O)N(Cc1ccc(Cl)cc1)C2` [Example 8, 2-(4-chloro-benzyl)-7-methyl-5-[5-(2-methyl-piperazin-1-ylmethyl)-[1,2,4]oxadiazol-3-yl]-2,3-dihydroisoindol-1-one], the solubility at 24 h in series [1] stood at 228 µM (≈ 103 µg/mL). Besides, the EC50 at human mGluR2 receptor is 202 nM.

Consider `Cc1cc(-c2noc(C(C)N3CCNCC3)n2)cc2c1C(=O)N(Cc1ccc(OC(F)(F)F)cc1)C2` (stereo not shown) [Example 12, 7-Methyl-5-[5-(1-piperazin-1-yl-ethyl)-[1,2,4]oxadiazol-3-yl]-2-(4-trifluoromethoxy-benzyl)-2,3-dihydro-isoindol-1-one], for which the solubility at 24 h in series [1] came out at 182 µM (≈ 91.3 µg/mL). Further, the EC50 at human mGluR2 receptor was determined as 307 nM.

Regarding `Cc1cc(-c2noc(CN3CCNC(C)C3)n2)cc2c1C(=O)N(Cc1ccc(Cl)cc1)C2` (stereo not shown) [Example 10, 2-(4-chloro-benzyl)-7-methyl-5-[5-(3-methyl-piperazin-1-ylmethyl)-[1,2,4]oxadiazol-3-yl]-2,3-dihydroisoindol-1-one], the solubility at 24 h in series [1] was determined as 148 µM (≈ 66.9 µg/mL). Also, the half-maximal effective concentration (EC50) on human mGluR2 receptor turned out to be 121 nM.

Consider `Cc1cc(-c2noc(CN3C[C@@H]4C[C@H]3CN4)n2)cc2c1C(=O)N(Cc1ccc(OC(F)(F)F)cc1)C2` [Example 5, 5-[5-(2,5-diaza-bicyclo[2.2.1]hept-2-ylmethyl)-[1,2,4]oxadiazol-3-yl]-7-methyl-2-(4-trifluoromethoxybenzyl)-2,3-dihydroisoindol-1-one], for which the solubility at 24 h in series [1] is 141 µM (≈ 70.4 µg/mL). Also, the EC50 at human mGluR2 receptor is 75 nM.

Take `Cc1cc(-c2noc(C(C)N3CCNCC3)n2)cc2c1C(=O)N([C@@H](C)c1ccc(Cl)cc1)C2` (stereo partly drawn) [Example 14, 2-[(S)-1-(4-Chloro-phenyl)-ethyl]-7-methyl-5-[5-(1-piperazin-1-yl-ethyl)-[1,2,4]oxadiazol-3-yl]-2,3-dihydro-isoindol-1-one]: the solubility at 24 h in series [1] was found to be 271 µM (≈ 126 µg/mL). Also, the 50% effective concentration (EC50) at human mGluR2 receptor was determined as 210 nM.

For the compound `CC1(C)CN(Cc2nc(-c3cc(Cl)c4c(c3)CN(Cc3ccc(OC(F)(F)F)cc3)C4=O)no2)CCN1` [Example 11, 7-chloro-5-[5-(3,3-dimethyl-piperazin-1-ylmethyl)-[1,2,4]oxadiazol-3-yl]-2-(4-trifluoro-methoxybenzyl)-2,3-dihydroisoindol-1-one], in series [1], the solubility at 24 h turned out to be 230 µM (≈ 123 µg/mL). Further, the concentration for a half-maximal effect (EC50) at human mGluR2 receptor was found to be 147 nM.

For `Cc1cc(-c2noc(CN3CCNCC3)n2)cc2c1C(=O)N(Cc1ccc(OC(F)(F)F)cc1)C2` [Example 3, 7-methyl-5-(5-piperazin-1-ylmethyl-[1,2,4]oxadiazol-3-yl)-2-(4-trifluoro-methoxybenzyl)-2,3-dihydroisoindol-1-one], the solubility at 24 h in series [1] amounted to 111 µM (≈ 54.1 µg/mL). Moreover, on human mGluR2 receptor, the EC50 stood at 147 nM.
